Measured values: patent publication US20100298141A1, “SUBSTITUTED PYRIDINE N-OXIDE HERBICIDES” (E. I. DU PONT DE NEMOURS AND COMPANY, priority 2007, published 2010)

Legend:
barnyardgrass = assay: Test C flooded paddy test; assay type: in vivo, Echinochloa crus-galli; conditions: Flood
In short: (§1)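 Greenhouse pots flooded to 3 cm above soil at time of treatment received compound via the water, which stayed at that level.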

giant foxtail = assay: Test A pre-/postemergence greenhouse test; assay type: in vivo, Setaria faberi; conditions: for Plant response rating, Foxtail, Giant: 0 to 100 scale where 0 is no effect and 100 is complete control; for Foxtail, Giant plant response rating: 0 to 100 scale
In short: (§2)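 Visual injury ratings, made relative to untreated controls roughly ten days after treatment, cover both preemergence and postemergence application. Compounds in a surfactant-containing non-phytotoxic solvent were sprayed onto the soil surface after sowing and, simultaneously, onto young plants at the one- to two-leaf stage.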

wheat [1] = assay: Test C pre-/postemergence test; assay type: in vivo, Triticum aestivum
In short: (§3)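 Test chemicals were formulated with surfactant in a non-phytotoxic solvent and sprayed both on freshly planted seeds (preemergence) and on 1- to 4-leaf plants of 2–18 cm (postemergence). Flooded-paddy pots received compound directly into 3 cm of standing water, maintained for the test.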

morningglory [2] = assay: Test C pre-/postemergence test; assay type: in vivo, Ipomoea coccinea
In short: as §3

yellow nutsedge = assay: Test C pre-/postemergence test; assay type: in vivo, Cyperus esculentus
In short: as §3

bermudagrass = assay: Test C pre-/postemergence test; assay type: in vivo, Cynodon dactylon
In short: as §3

crabgrass = assay: Test A pre-/postemergence greenhouse test; assay type: in vivo, Digitaria sanguinalis; conditions: for Plant response rating, Crabgrass, Large: 0 to 100 scale where 0 is no effect and 100 is complete control; for Crabgrass, Large plant response rating: 0 to 100 scale
In short: as §2

morningglory [3] = assay: Test A pre-/postemergence greenhouse test; assay type: in vivo, Ipomoea spp.; conditions: for Plant response rating, Morningglory: 0 to 100 scale where 0 is no effect and 100 is complete control; for Morningglory plant response rating: 0 to 100 scale
In short: as §2

Goosegrass = assay: Test C pre-/postemergence test; assay type: in vivo, Eleusin indica
In short: as §3

pigweed = assay: Test C pre-/postemergence test; assay type: in vivo, Amaranthus retroflexus
In short: as §3

Italian ryegrass = assay: Test C pre-/postemergence test; assay type: in vivo, Lolium multiflorum
In short: as §3

soybean = assay: Test C pre-/postemergence test; assay type: in vivo, Glycine max
In short: as §3

corn = assay: Test A pre-/postemergence greenhouse test; assay type: in vivo, Zea mays; conditions: for Plant response rating, Corn: 0 to 100 scale where 0 is no effect and 100 is complete control; for Corn plant response rating: 0 to 100 scale
In short: as §2

umbrella sedge = assay: Test C flooded paddy test; assay type: in vivo, Cyperus difformis; conditions: Flood
In short: as §1

wheat [4] = assay: Test A pre-/postemergence greenhouse test; assay type: in vivo, Triticum aestivum; conditions: for Plant response rating, Wheat: 0 to 100 scale where 0 is no effect and 100 is complete control; for Wheat plant response rating: 0 to 100 scale
In short: as §2

[5] = system: common (oilseed) sunflower; assay: Test C pre-/postemergence test; assay type: in vivo, Helianthus annuus
In short: as §3

[6] = 62 g ai/ha, scale 0 to 100 (0 no effect, 100 complete control)
[7] = 250 g ai/ha, scale 0 to 100, 0 no effect, 100 complete control, 13 to 15 days
[8] = Postemergence, 500 g ai/ha, 0 is no effect, 100 is complete control
[9] = Preemergence, 125 g ai/ha, 0 no effect, 100 complete control
[10] = 62 g ai/ha, Preemergence, scale 0 to 100
[11] = 125 g ai/ha, preemergence, scale 0 (no effect) to 100 (complete control)
[12] = Preemergence, 31 g ai/ha, scale 0 to 100 (0 no effect, 100 complete control)
[13] = preemergence, 250 g ai/ha, scale 0 (no effect) to 100 (complete control)

**Q.** Which results are given for `Cn1nc(OC(F)F)c(CS(=O)(=O)c2cccc[n+]2[O-])c1C(F)(F)F` [Compound 80]?
**A.** Plant response rating, Barnyardgrass (barnyardgrass; [6]): 0; Plant response rating, Barnyardgrass (barnyardgrass; [7]): 60; Plant response rating, Foxtail, Giant (giant foxtail; Postemergence, 125 g ai/ha): 70; Foxtail, Giant plant response rating (giant foxtail; [8]): 80; Foxtail, Giant plant response rating (giant foxtail; [9]): 90; Plant response rating, Foxtail, Giant (giant foxtail; Preemergence, 500 g ai/ha): 100; Wheat plant response rating (wheat [1]; [10]): 45; Wheat plant response rating (wheat [1]; [11]): 65; Plant response rating, Wheat (wheat [1]; [12]): 10; Wheat plant response rating (wheat [1]; [13]): 80; Morningglory plant response rating (morningglory [2]; [11]): 100; Plant response rating, Morningglory (morningglory [2]; [12]): 10; Nutsedge, Yellow plant response rating (yellow nutsedge; [10]): 75; Nutsedge, Yellow plant response rating (yellow nutsedge; [11]): 85; Plant response rating, Nutsedge, Yellow (yellow nutsedge; [12]): 45; Nutsedge, Yellow plant response rating (yellow nutsedge; [13]): 95; Bermudagrass plant response rating (bermudagrass; 62 g ai/ha, Preemergence, scale 0 to 100 (0 no effect, 100 complete control)): 100; Bermudagrass plant response rating (bermudagrass; [11]): 100; Plant response rating, Bermudagrass (bermudagrass; [12]): 100; Bermudagrass plant response rating (bermudagrass; [13]): 100; Plant response rating, Crabgrass, Large (crabgrass; Postemergence, 125 g ai/ha): 40; Crabgrass, Large plant response rating (crabgrass; [8]): 80; Crabgrass, Large plant response rating (crabgrass; [9]): 80; Plant response rating, Crabgrass, Large (crabgrass; Preemergence, 500 g ai/ha): 90; Plant response rating, Morningglory (morningglory [3]; Postemergence, 125 g ai/ha): 10; Morningglory plant response rating (morningglory [3]; [8]): 50; Morningglory plant response rating (morningglory [3]; [9]): 60; Plant response rating, Morningglory (morningglory [3]; Preemergence, 500 g ai/ha): 80; Goosegrass plant response rating (Goosegrass; [10]): 98; Goosegrass plant response rating (Goosegrass; [11]): 100; Plant response rating, Goosegrass (Goosegrass; [12]): 80; Goosegrass plant response rating (Goosegrass; [13]): 100; Pigweed plant response rating (pigweed; [10]): 0; Pigweed plant response rating (pigweed; [11]): 0; Plant response rating, Pigweed (pigweed; [12]): 0; Pigweed plant response rating (pigweed; [13]): 0; Ryegrass, Italian plant response rating (Italian ryegrass; [10]): 70; Ryegrass, Italian plant response rating (Italian ryegrass; [11]): 85; Plant response rating, Ryegrass, Italian (Italian ryegrass; [12]): 0; Ryegrass, Italian plant response rating (Italian ryegrass; [13]): 90; Soybean plant response rating (soybean; [10]): 0; Soybean plant response rating (soybean; [11]): 20; Plant response rating, Soybean (soybean; [12]): 0; Soybean plant response rating (soybean; [13]): 20; Plant response rating, Corn (corn; Postemergence, 125 g ai/ha): 0; Corn plant response rating (corn; [8]): 50; Corn plant response rating (corn; [9]): 0; Plant response rating, Corn (corn; Preemergence, 500 g ai/ha): 60; Plant response rating, Sedge, Umbrella (umbrella sedge; [6]): 0; Plant response rating, Sedge, Umbrella (umbrella sedge; [7]): 85; Plant response rating, Wheat (wheat [4]; Postemergence, 125 g ai/ha): 30; Wheat plant response rating (wheat [4]; [8]): 60; Wheat plant response rating (wheat [4]; [9]): 10; Plant response rating, Wheat (wheat [4]; Preemergence, 500 g ai/ha): 80; Sunflower plant response rating [5, 10]: 20; Sunflower plant response rating [5, 11]: 40; Plant response rating, Sunflower [5, 12]: 5; Sunflower plant response rating [5, 13]: 45
